Experimental data as given in patent US20060194259A1, “Method for isolating an allosteric effector of a receptor” (priority 2002, published 2006).

Columns and labels:
receptor EGFP-NK2R [1] = molecular target: T1, receptor EGFP-NK2R (UniProt P16610); experiment: cAMP production caused by NKA in HEK 293 cells expressing EGFP-NK2R; format: cell-based; set-up: 805 at 10 or 50 μM; NKA alone; fused on or other part: EGFP fused to the receptor; conditions: read-out: inhibition constant KI of the maximum response of cAMP induced by the NKA; FIG. 9C
T1 sequence (P16610 1-390): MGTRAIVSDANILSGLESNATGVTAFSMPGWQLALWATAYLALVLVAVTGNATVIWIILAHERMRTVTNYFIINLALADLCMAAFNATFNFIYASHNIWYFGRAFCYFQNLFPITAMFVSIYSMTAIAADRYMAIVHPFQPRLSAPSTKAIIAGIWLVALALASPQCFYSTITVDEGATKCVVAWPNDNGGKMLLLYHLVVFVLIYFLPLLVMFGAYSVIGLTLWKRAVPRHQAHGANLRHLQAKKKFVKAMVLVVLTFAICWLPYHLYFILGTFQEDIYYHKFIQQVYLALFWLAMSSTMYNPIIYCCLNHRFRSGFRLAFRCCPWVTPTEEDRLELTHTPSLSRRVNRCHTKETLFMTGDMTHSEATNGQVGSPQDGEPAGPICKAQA
Procedure: (§1) 30 mm 6-well cell-culture dishes are treated with collagen then seeded with 50,000 cells expressing the receptor EGFP-NK2R. […] The quantity of cAMP produced (expressed in pmoles/well) is determined according to a radioimmunological process described in Gicquiaux et al. (2002).

receptor EGFP-NK2R [2] = molecular target: T1, receptor EGFP-NK2R; experiment: Reversion of the binding of NKA-Bo to EGFP-NK2R by fluorescence energy transfer; set-up: % al (max): maximum value observed for the increase in amplitude of the rapid dissociation rate; ns = n; other: 20 nM of NK; % al (at 10 μM); other: compou; fused on or other part: EGFP fused to the receptor as FRET donor
Source text: The amplitude of each relaxation is then given by the adjustment of the experimental traces.

receptor EGFP-NK2R [3] = molecular target: T2, receptor EGFP-NK2R (Homo sapiens, UniProt P21452); experiment: cAMP production caused by NKA in HEK 293 cells expressing EGFP-NK2R; format: cell-based
T2 sequence (P21452 1-398): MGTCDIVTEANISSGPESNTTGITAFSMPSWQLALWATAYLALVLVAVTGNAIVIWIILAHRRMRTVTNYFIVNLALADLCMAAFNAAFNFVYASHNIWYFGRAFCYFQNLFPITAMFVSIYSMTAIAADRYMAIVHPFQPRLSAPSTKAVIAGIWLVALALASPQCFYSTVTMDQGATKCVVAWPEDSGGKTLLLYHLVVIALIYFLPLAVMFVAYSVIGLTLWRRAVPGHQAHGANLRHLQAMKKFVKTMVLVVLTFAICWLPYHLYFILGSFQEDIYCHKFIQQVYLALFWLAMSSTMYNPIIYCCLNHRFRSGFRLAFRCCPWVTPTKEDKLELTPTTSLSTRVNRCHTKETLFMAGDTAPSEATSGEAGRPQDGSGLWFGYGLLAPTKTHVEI
Procedure: as §1

[4] = system: cells not expressing the EGFP-NK2R receptor; experiment: Calcium response on cells not expressing the receptor; format: cell-based; set-up: key: ns: not significant; ?: uniterpretable

## N#CCN(Cc1ccccc1)Cc1ccc2ccccc2c1 [compound 805, [benzyl(2-naphthylmethyl)amino]acetonitrile]
Receptor EGFP-NK2R [1]
  Ki: ~6 µM
Receptor EGFP-NK2R [2]; compound 10 μM
  % bond reversion (at 10 μM): 1 (10 μM) %
Receptor EGFP-NK2R [2]; read-out: IC50 (μM): concentration of compound for which a 50% reduction is observed in the binding of NKA-Bo, 20 nM of NKA-Bo, EGFP-NK2R receptor
  IC50: > 500 µM
Receptor EGFP-NK2R [3]; [805]=10 μM
  Rmax, maximum cAMP response to NKA relative to control: 0.7
Receptor EGFP-NK2R [3]; [805]=50 μM
  Rmax, maximum cAMP response to NKA relative to control: 0.3
[4]; Table 1
  Ca Rep.: ability to evoke a calcium response on cells not expressing the EGFP-NK2R receptor: ns
[4]; Table 2
  Ca Rep.: ns
